From patent US6673791B2, “Non-nucleoside reverse transcriptase inhibitors” (Boehringer Ingelheim (Canada) Ltd., priority 2001, dated 2004)
Like-named read-outs stand apart in the source and are kept apart here.

Experiments:
[1] = target: T1, K103N/Y181C double mutant RT (HIV-1 RT) (Human immunodeficiency virus type 1 group M subtype B, UniProt P03366, K702N/Y780C); assay: biochemical
T1 construct: mutations that occur in the reverse transcriptase segment of the pol gene
Description: (§1) Based upon testing of these compounds, as described below, it is known that they inhibit the RNA-dependent DNA polymerase activity of HIV-1 RT. […] Utilising the Reverse Transcriptase (RT) Assay described below, compounds can be tested for their ability to inhibit the RNA-dependent DNA polymerase activity of HIV-1 RT. Certain specific compounds described in the Examples which appear below, were so tested. The results of this testing appear in Table 4 as IC50 (nM) and Table 5 as EC50 (nM).
(§2) Reverse TranscriptASE (RT) Assays
(§3) The assays are as described in WO 01/96338A1, the contents of which are hereby incorporated herein. The results are listed in Tables 8 as IC50(nM) and EC50(nM).

[2] = target: T2, V106A mutant RT (HIV-1 RT) (Human immunodeficiency virus type 1 group M subtype B, UniProt P03366, V705A); assay: biochemical
T2 construct: mutations that occur in the reverse transcriptase segment of the pol gene
Description: as §1, §2, §3

[3] = target: T3, WT RT (HIV-1 RT) (Human immunodeficiency virus type 1 group M subtype B, UniProt P03366); assay: biochemical
T3 construct: mutations that occur in the reverse transcriptase segment of the pol gene
Description: as §1, §2, §3

[4] = target: T4, Y188L mutant RT (HIV-1 RT) (Human immunodeficiency virus type 1 group M subtype B, UniProt P03366, Y787L); assay: biochemical
T4 construct: mutations that occur in the reverse transcriptase segment of the pol gene
Description: as §1, §2, §3

[5] = tested on: WT RT (HIV-1 wild type strain); assay: EC50 assay, WT RT strain; assay type: cell-based
Description: as §2, §3

[6] = tested on: K103N/Y181C (HIV-1 double mutant strain); assay: EC50 assay, K103N/Y181C strain; assay type: cell-based
Description: as §2, §3

[7] = Human immunodeficiency virus 1, read-out: EC50 WT RT (nM)
[8] = Human immunodeficiency virus 1, read-out: EC50 K103N/Y181C (nM), K103N/Y181C double mutant
[9] = K103N/Y181C double mutant RT, read-out: IC50 K103N/Y181C
[10] = wild type RT, read-out: IC50 WT RT
[11] = wild type, read-out: EC50 WT RT
[12] = K103N/Y181C double mutant, read-out: EC50 K103N/Y181C
[13] = read-out: IC50 K103N/Y181C, K103N/Y181C double mutant RT
[14] = read-out: IC50 WT RT, wild type RT
[15] = read-out: EC50 WT RT, wild type
[16] = read-out: EC50 K103N/Y181C, K103N/Y181C double mutant

Compound | IC50 [1] | IC50 ([2]; IC50 V106A (nM)) | IC50 [3] | IC50 ([4]; IC50 Y188L (nM)) | EC50 [5, 7] | EC50 [6, 8] | IC50 [1, 9] | IC50 ([2]; read-out: IC50 V106A) | IC50 [3, 10] | IC50 ([4]; read-out: IC50 Y188L) | EC50 [5, 11] | EC50 [6, 12] | IC50 [1, 13] | IC50 [3, 14] | EC50 [5, 15] | EC50 [6, 16]
CCN1c2ncc(CCOc3ccc(/C=C/C(=O)O)c4ccccc34)cc2C(=O)N(C)c2ccc(Cl)nc21 [Entry 1029] | 100 to 1000 nM | 100 to 1000 nM | < 100 nM | 100 to 1000 nM | < 100 nM | < 100 nM | – | – | – | – | – | – | – | – | – | –
CCN1c2ncc(CCOc3ccc(/C=C/C(=O)O)c4ccccc34)cc2C(=O)Nc2c(C)cc(Cl)nc21 [Entry 1030] | 100 to 1000 nM | < 100 nM | < 100 nM | > 1000 nM | < 100 nM | < 100 nM | – | – | – | – | – | – | – | – | – | –
CCN1c2ncc(CCOc3ccc(/C=C/C(=O)O)c4ccccc34)cc2C(=O)Nc2c(C)ccnc21 [Entry 1031] | 100 to 1000 nM | 100 to 1000 nM | < 100 nM | > 1000 nM | < 100 nM | < 100 nM | – | – | – | – | – | – | – | – | – | –
CCN1c2ncc(CCOc3ccc(/C=C/C(=O)O)c4ccccc34)cc2C(=O)N(C)c2ccc(F)nc21 [Entry 1032] | 100 to 1000 nM | 100 to 1000 nM | < 100 nM | 100 to 1000 nM | < 100 nM | < 100 nM | – | – | – | – | – | – | – | – | – | –
CCN1c2ncc(CCOc3ccc(/C=C/C(=O)O)c4ccccc34)cc2C(=O)N(C)c2ccc(C)nc21 [Entry 1033] | 100 to 1000 nM | 100 to 1000 nM | < 100 nM | 100 to 1000 nM | < 100 nM | < 100 nM | – | – | – | – | – | – | – | – | – | –
CCN1c2ncc(CCOc3ccc(/C=C/C(=O)O)c4ccccc34)cc2C(=O)Nc2c(C)cc(F)nc21 [Entry 1034] | 100 to 1000 nM | < 100 nM | < 100 nM | > 1000 nM | < 100 nM | < 100 nM | – | – | – | – | – | – | – | – | – | –
CCN1c2ncc(CCOc3ccc(/C=C(\C)C(=O)O)c4ccccc34)cc2C(=O)N(C)c2cccnc21 [Entry 1035] | 100 to 1000 nM | > 1000 nM | < 100 nM | > 1000 nM | < 100 nM | < 100 nM | – | – | – | – | – | – | – | – | – | –
CCN1c2ncc(CCOc3ccc(/C=C(\C)C(=O)O)c4ccccc34)cc2C(=O)N(C)c2ccc(Cl)nc21 [Entry 1036] | 100 to 1000 nM | 100 to 1000 nM | < 100 nM | > 1000 nM | < 100 nM | < 100 nM | – | – | – | – | – | – | – | – | – | –
CCN1c2ncc(CCOc3ccc(/C=C(\C)C(=O)O)c4ccccc34)cc2C(=O)N(C)c2ccc(F)nc21 [Entry 1037] | 100 to 1000 nM | > 1000 nM | < 100 nM | > 1000 nM | < 100 nM | < 100 nM | – | – | – | – | – | – | – | – | – | –
CCN1c2ncc(CCOc3ccc(/C=C(\C)C(=O)O)c4ccccc34)cc2C(=O)N(C)c2ccc(C)nc21 [Entry 1038] | 100 to 1000 nM | > 1000 nM | < 100 nM | > 1000 nM | < 100 nM | < 100 nM | – | – | – | – | – | – | – | – | – | –
CCN1c2ncc(CCOc3ccc(/C=C(\C)C(=O)O)c4ccccc34)cc2C(=O)Nc2c(C)cc(Cl)nc21 [Entry 1040] | 100 to 1000 nM | 100 to 1000 nM | < 100 nM | > 1000 nM | < 100 nM | 100 to 1000 nM | – | – | – | – | – | – | – | – | – | –
CCN1c2ncc(CCOc3ccc(CC(C)C(=O)O)c4ccccc34)cc2C(=O)N(C)c2cccnc21 (stereo not drawn) [Entry 1042] | 100 to 1000 nM | > 1000 nM | < 100 nM | > 1000 nM | < 100 nM | < 100 nM | – | – | – | – | – | – | – | – | – | –
CCN1c2ncc(CCOc3ccc(CC(C)C(=O)O)c4ccccc34)cc2C(=O)N(C)c2ccc(Cl)nc21 (stereo not drawn) [Entry 1044] | 100 to 1000 nM | > 1000 nM | < 100 nM | > 1000 nM | < 100 nM | < 100 nM | – | – | – | – | – | – | – | – | – | –
CCN1c2ncc(CCOc3ccc(/C(C)=C/C(=O)O)c4ccccc34)cc2C(=O)N(C)c2cccnc21 [Entry 1048] | 100 to 1000 nM | > 1000 nM | < 100 nM | > 1000 nM | < 100 nM | < 100 nM | – | – | – | – | – | – | – | – | – | –
C=C(CC(=O)O)c1ccc(OCCc2cnc3c(c2)C(=O)N(C)c2cccnc2N3CC)c2ccccc12 [Entry 1049] | 100 to 1000 nM | > 1000 nM | < 100 nM | > 1000 nM | < 100 nM | 100 to 1000 nM | – | – | – | – | – | – | – | – | – | –
CCN1c2ncc(CCOc3ccc(C4CC4C(=O)O)c4ccccc34)cc2C(=O)N(C)c2ccc(F)nc21 (stereo not drawn) [Entry 1050] | 100 to 1000 nM | 100 to 1000 nM | < 100 nM | 100 to 1000 nM | < 100 nM | 100 to 1000 nM | – | – | – | – | – | – | – | – | – | –
CCN1c2ncc(CCOc3ccc(C(C)CC(=O)O)c4ccccc34)cc2C(=O)N(C)c2cccnc21 (stereo not drawn) [Entry 1051] | 100 to 1000 nM | > 1000 nM | < 100 nM | > 1000 nM | < 100 nM | < 100 nM | – | – | – | – | – | – | – | – | – | –
CCN1c2ncc(CCOc3ccc(NC(=O)CCC(=O)O)c4ccccc34)cc2C(=O)N(C)c2cccnc21 [Entry 2006] | – | – | – | – | – | – | 100 to 1000 nM | > 1000 nM | < 100 nM | > 1000 nM | < 100 nM | 100 to 1000 nM | – | – | – | –
CCN1c2ncc(CCOc3cccc4c(S(=O)(=O)NCC(=O)O)cccc34)cc2C(=O)N(C)c2cccnc21 [Entry 2008] | < 100 nM | 100 to 1000 nM | < 100 nM | 100 to 1000 nM | 100 to 1000 nM | 100 to 1000 nM | – | – | – | – | – | – | – | – | – | –
CCN1c2ncc(CCOc3ccc(/C=C/C(=O)O)c4ccccc34)cc2C(=O)N(C)c2ccc(F)nc21 [Entry 2014] | – | – | – | > 1000 nM | – | – | – | 100 to 1000 nM | – | – | – | – | 100 to 1000 nM | < 100 nM | < 100 nM | 100 to 1000 nM
CCN1c2ncc(CCOc3ccc(/C=C/C(=O)O)c4ccccc34)cc2C(=O)N(C)c2ccc(Cl)nc21 [Entry 2016] | – | – | – | – | – | – | – | 100 to 1000 nM | – | 100 to 1000 nM | – | – | 100 to 1000 nM | < 100 nM | < 100 nM | 100 to 1000 nM
CCN1c2ncc(CCOc3ccc(/C=C/C(=O)O)c4ccccc34)cc2C(=O)Nc2c(C)cc(Cl)nc21 [Entry 2018] | – | 100 to 1000 nM | – | – | – | – | – | – | – | > 1000 nM | – | – | 100 to 1000 nM | < 100 nM | < 100 nM | 100 to 1000 nM
CCN1c2ncc(CCOc3ccc(CCC(=O)NN)c4ccccc34)cc2C(=O)N(C)c2cccnc21 [Entry 2020] | – | – | – | – | – | – | 100 to 1000 nM | > 1000 nM | < 100 nM | > 1000 nM | < 100 nM | 100 to 1000 nM | – | – | – | –
CCN1c2ncc(CCOc3ccc4cc(C(=O)NN)ccc4c3)cc2C(=O)N(C)c2cccnc21 [Entry 3002] | 100 to 1000 nM | < 100 nM | < 100 nM | > 1000 nM | < 100 nM | 100 to 1000 nM | – | – | – | – | – | – | – | – | – | –
